Laboratory results taken from patent US20150258106A1, “METHODS FOR ACUTE AND LONG-TERM TREATMENT OF SUBSTANCE ABUSE” (DEMERX, INC., priority 2014, published 2015).
Read-outs that look alike come from different tables or passages of the source.

What was measured:
[1] = tested on: opioid-dependent participants; assay: Opiate withdrawal scales (COWS, SOWS, OOWS) in opioid-dependent participants; format: in vivo, human
Procedure: Patients were evaluated based on the Clinical Opiate Withdrawal Scale (COWS), Subjective Opiate Withdrawal Scale (SOWS), and Objective Opiate Withdrawal Scale (OOWS) scoring systems over the period of time between administration of noribogaine (or placebo) until resumption of OST. These scales are outlined in Guidelines for the Psychosocially Assisted Pharmacological Treatment of Opioid Dependence, World Health Organization, Geneva (2009), Annex 10, which is incorporated herein by reference in its entirety. The scales measure the intensity of withdrawal symptoms, based on clinical, subjective, and objective indicia.

[2] = Pharmacokinetics of noribogaine in healthy volunteers, ascending single oral dose (plasma noribogaine and noribogaine glucuronide); conditions: for CL/F: healthy male volunteers, fasted, n = 6, mean (SD); for mean AUC/24 hr / time after administration at which mean Cmax was observed / mean AUC/24: fasting
[3] = Pharmacokinetics in opioid-dependent patients (Phase IB study); format: in vivo, human; conditions: for AUC(0-t) / AUC / half-life / Tmax / Vd/F / Cmax: human, serum, opioid-dependent patients
Procedure: (§1) Three cohorts of nine (9) subjects (6 administered noribogaine and 3 administered placebo in each cohort) were evaluated for tolerability, pharmacokinetics, and efficacy. Cohort 1 received a single dose of 60 mg noribogaine or placebo. Cohort 2 received a single dose of 120 mg noribogaine or placebo. Cohort 3 received a single dose of 180 mg noribogaine or placebo. […] Headaches were frequent in the placebo and 60 mg noribogaine treatment groups, but were attenuated in the 120 mg and 180 mg dose groups.

[4] = tested on: opioid-dependent participants; assay: QT interval evaluation in opioid-dependent participants; format: in vivo, human; conditions: opioid-dependent patients, first 24 hours post administration, 60-180 mg
Procedure: Patients' QT intervals were evaluated at regular time points throughout the study.

[5] = tested on: opioid-dependent participants; assay: Time to resumption of opioid substitution treatment (OST) in opioid-dependent participants; format: in vivo, human
Procedure: The efficacy of noribogaine in humans was evaluated in opioid-dependent participants in a randomized, placebo-controlled, double-blind trial. […] See U.S. application Ser. No. 14/214,157, filed Mar. 14, 2014 and Ser. No. 14/346,655, filed Mar. 21, 2014, which are incorporated herein by reference in their entireties.
as §1

[6] = single dose of 3 mg noribogaine free base
[7] = single dose of 10 mg noribogaine free base
[8] = single dose of 30 mg noribogaine free base
[9] = single dose of 60 mg noribogaine free base

In the case of `CCC1CC2CC3c4[nH]c5ccc(O)cc5c4CCN(C2)C13` (stereo not drawn) [Noribogaine], the “withdrawal symptoms (COWS, OOWS, SOWS), first six hours following dosing” value ([1]; opioid-dependent patients, 120 mg) is reported as “fewer withdrawal symptoms than the other patients”, the “withdrawal symptoms (COWS, OOWS, SOWS), noribogaine compared with placebo” value ([1]; opioid-dependent patients, 60, 120 or 180 mg) is reported as “Patients administered placebo generally experienced more withdrawal symptoms than patients who were administered noribogaine” and the CL/F ([2]; single oral 3 mg dose, plasma) is reported as 41.4 (7.0) L/h. For the same compound, the CL/F ([2]; single oral 10 mg dose, plasma) was 42.3 (12.0) L/h, the CL/F ([2]; single oral 30 mg dose, plasma) was 46.9 (16.4) L/h and the CL/F ([2]; single oral 60 mg dose, plasma) was 34.0 (11.4) L/h. The “Cmax and AUC versus dose” value ([2]; healthy volunteers, 3-60 mg single oral doses) was “increased linearly with dose”, the “time of peak concentrations after oral dosing” value ([2]; healthy volunteers, across dose groups 3-60 mg) was 2 to 3 h and the absorption ([2]; healthy volunteers, oral dosing) was “rapidly absorbed”. It also gave a Vd ([2]; male, human, plasma, oral) of 1420 to 3090 L, a half-life ([2]; male, human, plasma, oral) of 28 to 50 h and an AUC(0-inf) ([2]; male, human, plasma, po, 3 mg) of 74.2 ng·h/mL. It also gave an AUC(0-t) ([2]; male, human, plasma, po, 3 mg) of 72.2 ng·h/mL, a Cmax ([2]; male, human, plasma, po, 3 mg) of 5.2 ng/mL and a Tmax ([2]; male, human, plasma, po, 3 mg) of 1.9 h. The Vd/F ([2]; male, human, plasma, po, 3 mg) was 2490 L, the half-life ([2]; male, human, plasma, po, 3 mg) was 40.9 h and the AUC(0-inf) ([2]; male, human, plasma, po, 10 mg) was 254 ng·h/mL. For the same compound, the AUC(0-t) ([2]; male, human, plasma, po, 10 mg) was 251 ng·h/mL, the Cmax ([2]; male, human, plasma, po, 10 mg) was 14.5 ng/mL and the Tmax ([2]; male, human, plasma, po, 10 mg) was 2.9 h. It also gave a Vd/F ([2]; male, human, plasma, po, 10 mg) of 3090 L, a half-life ([2]; male, human, plasma, po, 10 mg) of 49.2 h and an AUC(0-inf) ([2]; male, human, plasma, po, 30 mg) of 700 ng·h/mL. For the same compound, the AUC(0-t) ([2]; male, human, plasma, po, 30 mg) was 678 ng·h/mL, the Cmax ([2]; male, human, plasma, po, 30 mg) was 55.9 ng/mL and the Tmax ([2]; male, human, plasma, po, 30 mg) was 1.8 h. The Vd/F ([2]; male, human, plasma, po, 30 mg) was 1850 L, the half-life ([2]; male, human, plasma, po, 30 mg) was 27.6 h and the AUC(0-inf) ([2]; male, human, plasma, po, 60 mg) was 1960 ng·h/mL. For the same compound, the AUC(0-t) ([2]; male, human, plasma, po, 60 mg) was 1940 ng·h/mL, the Cmax ([2]; male, human, plasma, po, 60 mg) was 116 ng/mL and the Tmax ([2]; male, human, plasma, po, 60 mg) was 2.4 h. For the same compound, the Vd/F ([2]; male, human, plasma, po, 60 mg) was 1420 L, the half-life ([2]; male, human, plasma, po, 60 mg) was 29.1 h and the Cmax ([2]; male, human, serum, oral, 3 mg) was 5.2 ng/mL. For the same compound, the Cmax ([2]; male, human, serum, oral, 10 mg) was 14.5 ng/mL, the Cmax ([2]; male, human, serum, oral, 30 mg) was 55.9 ng/mL and the Cmax ([2]; male, human, serum, oral, 60 mg) was 116 ng/mL. The “mean AUC/24 hr” value [2, 6] was 3.1 ng/mL, the “time after administration at which mean Cmax was observed” value (“time after administration” below) [2, 6] was 1.9 h and the “mean AUC/24 hr” value [2, 7] was 10.6 ng/mL. For the same compound, the “time after administration” value [2, 7] was 2.9 h, the “mean AUC/24” value [2, 8] was 29.2 ng/mL and the “time after administration” value [2, 8] was 1.75 h. For the same compound, the “mean AUC/24” value [2, 9] was 61 ng/mL, the “time after administration” value [2, 9] was 1.75 h and the AUC(0-t) ([3]; 60 mg, Cohort 1 (60 mg), mean ± SD, read-out: AUC(0-T)) was 2020 ± 614 ng·h/mL. It also gave an AUC ([3]; 60 mg, Cohort 1 (60 mg), mean ± SD, read-out: AUC(0-¥)) of 2060 ± 609 ng·h/mL, a half-life ([3]; 60 mg, Cohort 1 (60 mg), mean ± SD, read-out: Half-life (converted)) of 29.3 ± 7.28 h and a Tmax ([3]; 60 mg, Cohort 1 (60 mg), mean ± SD, read-out: Tmax) of 3.59 ± 0.92 h. The Vd/F ([3]; 60 mg, Cohort 1 (60 mg), mean ± SD, read-out: Vd/F) was 1440 ± 854 L, the AUC(0-t) ([3]; 60 mg, Cohort 1 (60 mg), range, read-out: AUC(0-T) [range]) was 1090 to 2530 ng·h/mL and the AUC ([3]; 60 mg, Cohort 1 (60 mg), range, read-out: AUC(0-¥) [range]) was 1120 to 2550 ng·h/mL. The half-life ([3]; 60 mg, Cohort 1 (60 mg), range, read-out: Half-life [range]) was 18.3 to 37.3 h, the Tmax ([3]; 60 mg, Cohort 1 (60 mg), range, read-out: Tmax [range]) was 2.5 to 5 h and the Vd/F ([3]; 60 mg, Cohort 1 (60 mg), range, read-out: Vd/F [range]) was 620 to 2770 L. For the same compound, the Cmax ([3]; 60 mg, Cohort 1 (60 mg), mean ± SD, read-out: Cmax) was 81.6 ± 23.8 ng/mL, the Cmax ([3]; 60 mg, Cohort 1 (60 mg), range, read-out: Cmax [range]) was 41.3 to 113 ng/mL and the AUC(0-t) ([3]; 120 mg, Cohort 2 (120 mg), mean ± SD, read-out: AUC(0-T)) was 3230 ± 1540 ng·h/mL. The AUC ([3]; 120 mg, Cohort 2 (120 mg), mean ± SD, read-out: AUC(0-¥)) was 3280 ± 1580 ng·h/mL, the half-life ([3]; 120 mg, Cohort 2 (120 mg), mean ± SD, read-out: Half-life (converted)) was 30.4 ± 9.14 h and the Tmax ([3]; 120 mg, Cohort 2 (120 mg), mean ± SD, read-out: Tmax) was 2.99 ± 1.23 h. The Vd/F ([3]; 120 mg, Cohort 2 (120 mg), mean ± SD, read-out: Vd/F) was 2110 ± 1640 L, the AUC(0-t) ([3]; 120 mg, Cohort 2 (120 mg), range, read-out: AUC(0-T) [range]) was 1560 to 5640 ng·h/mL and the AUC ([3]; 120 mg, Cohort 2 (120 mg), range, read-out: AUC(0-¥) [range]) was 1600 to 5770 ng·h/mL. It also gave a half-life ([3]; 120 mg, Cohort 2 (120 mg), range, read-out: Half-life [range]) of 21.9 to 48.3 h, a Tmax ([3]; 120 mg, Cohort 2 (120 mg), range, read-out: Tmax [range]) of 0.98 to 4.02 h and a Vd/F ([3]; 120 mg, Cohort 2 (120 mg), range, read-out: Vd/F [range]) of 824 to 5240 L. For the same compound, the Cmax ([3]; 120 mg, Cohort 2 (120 mg), mean ± SD, read-out: Cmax) was 173 ± 30.7 ng/mL, the Cmax ([3]; 120 mg, Cohort 2 (120 mg), range, read-out: Cmax [range]) was 139 to 230 ng/mL and the AUC(0-t) ([3]; 180 mg, Cohort 3 (180 mg), mean ± SD, read-out: AUC(0-T)) was 6520 ± 2910 ng·h/mL. It also gave an AUC ([3]; 180 mg, Cohort 3 (180 mg), mean ± SD, read-out: AUC(0-¥)) of 6890 ± 3490 ng·h/mL, a half-life ([3]; 180 mg, Cohort 3 (180 mg), mean ± SD, read-out: Half-life (converted)) of 23.9 ± 5.54 h and a Tmax ([3]; 180 mg, Cohort 3 (180 mg), mean ± SD, read-out: Tmax) of 4.41 ± 1.8 h. It also gave a Vd/F ([3]; 180 mg, Cohort 3 (180 mg), mean ± SD, read-out: Vd/F) of 1030 ± 365 L, an AUC(0-t) ([3]; 180 mg, Cohort 3 (180 mg), range, read-out: AUC(0-T) [range]) of 3720 to 10400 ng·h/mL and an AUC ([3]; 180 mg, Cohort 3 (180 mg), range, read-out: AUC(0-¥) [range]) of 3730 to 12300 ng·h/mL. It also gave a half-life ([3]; 180 mg, Cohort 3 (180 mg), range, read-out: Half-life [range]) of 19.3 to 34.9 h, a Tmax ([3]; 180 mg, Cohort 3 (180 mg), range, read-out: Tmax [range]) of 3 to 8 h and a Vd/F ([3]; 180 mg, Cohort 3 (180 mg), range, read-out: Vd/F [range]) of 581 to 1610 L. For the same compound, the Cmax ([3]; 180 mg, Cohort 3 (180 mg), mean ± SD, read-out: Cmax) was 268 ± 46.9 ng/mL, the Cmax ([3]; 180 mg, Cohort 3 (180 mg), range, read-out: Cmax [range]) was 205 to 338 ng/mL and the “Maximum serum concentration of noribogaine (Cmax) versus dose” value ([3]; opioid-dependent patients, 60, 120, 180 mg) was “increased in a dose-dependent manner”. For the same compound, the “QT interval prolongation (ΔQTc1)” value [4] was “dose-dependent increase in QT interval prolongation”, the “average time to resumption of opioids” value ([5]; opioid-dependent patients, single 120 mg dose) was “greater than 20 hours” and the “Time to resumption of OST compared with untreated patients or 60 mg noribogaine” value ([5]; single 180 mg dose) was “longer than untreated patients”.
